Measurements taken from ChEMBL document CHEMBL1134266, “Design and pharmacology of quinuclidine derivatives as M2-selective muscarinic receptor ligands” (Bioorg Med Chem Lett, 2001).
pKi: −log10 of the molar value.

Experiments:
Type in all cases: cell-based
[1] = biological target: T1, Muscarinic acetylcholine receptor M2 (Homo sapiens, UniProt P08172); assay: Affinity for Muscarinic acetylcholine receptor M2 expressed in CHO cells by [3H]NMS displacement.
T1 sequence (P08172 whole entry): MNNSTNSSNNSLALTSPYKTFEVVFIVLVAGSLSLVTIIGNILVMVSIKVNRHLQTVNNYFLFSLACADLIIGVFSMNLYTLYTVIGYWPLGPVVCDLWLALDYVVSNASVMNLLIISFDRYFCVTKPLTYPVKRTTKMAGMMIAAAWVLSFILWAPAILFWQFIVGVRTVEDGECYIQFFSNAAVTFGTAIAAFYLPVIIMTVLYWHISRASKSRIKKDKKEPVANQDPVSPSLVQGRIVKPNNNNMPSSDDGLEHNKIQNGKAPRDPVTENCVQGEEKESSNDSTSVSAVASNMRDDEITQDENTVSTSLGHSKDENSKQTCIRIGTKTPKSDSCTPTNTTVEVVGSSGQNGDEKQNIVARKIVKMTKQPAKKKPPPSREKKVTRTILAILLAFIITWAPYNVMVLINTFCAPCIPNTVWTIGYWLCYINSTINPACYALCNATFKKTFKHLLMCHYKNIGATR

[2] = biological target: T2, Muscarinic acetylcholine receptor M1 (Homo sapiens, UniProt P11229); assay: Affinity for Muscarinic acetylcholine receptor M1 expressed in CHO cells by [3H]NMS displacement.
T2 sequence (P11229 whole entry): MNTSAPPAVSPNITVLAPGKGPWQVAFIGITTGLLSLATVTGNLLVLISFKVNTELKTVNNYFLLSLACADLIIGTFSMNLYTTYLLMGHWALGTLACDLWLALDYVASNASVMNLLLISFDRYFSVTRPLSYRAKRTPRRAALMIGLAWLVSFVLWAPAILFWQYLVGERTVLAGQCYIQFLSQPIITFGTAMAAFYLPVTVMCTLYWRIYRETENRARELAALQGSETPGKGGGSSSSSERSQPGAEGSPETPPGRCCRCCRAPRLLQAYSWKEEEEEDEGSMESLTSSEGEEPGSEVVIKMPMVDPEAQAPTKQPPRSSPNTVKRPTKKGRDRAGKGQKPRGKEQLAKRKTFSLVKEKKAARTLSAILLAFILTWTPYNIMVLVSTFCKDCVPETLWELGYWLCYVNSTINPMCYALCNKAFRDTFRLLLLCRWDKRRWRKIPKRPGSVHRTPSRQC

[3] = biological target: Muscarinic acetylcholine receptor M3 (Homo sapiens, UniProt P20309); assay: Affinity for Muscarinic acetylcholine receptor M3 expressed in CHO cells by [3H]-NMS displacement.
Sequence of Muscarinic acetylcholine receptor M3 (P20309 whole entry): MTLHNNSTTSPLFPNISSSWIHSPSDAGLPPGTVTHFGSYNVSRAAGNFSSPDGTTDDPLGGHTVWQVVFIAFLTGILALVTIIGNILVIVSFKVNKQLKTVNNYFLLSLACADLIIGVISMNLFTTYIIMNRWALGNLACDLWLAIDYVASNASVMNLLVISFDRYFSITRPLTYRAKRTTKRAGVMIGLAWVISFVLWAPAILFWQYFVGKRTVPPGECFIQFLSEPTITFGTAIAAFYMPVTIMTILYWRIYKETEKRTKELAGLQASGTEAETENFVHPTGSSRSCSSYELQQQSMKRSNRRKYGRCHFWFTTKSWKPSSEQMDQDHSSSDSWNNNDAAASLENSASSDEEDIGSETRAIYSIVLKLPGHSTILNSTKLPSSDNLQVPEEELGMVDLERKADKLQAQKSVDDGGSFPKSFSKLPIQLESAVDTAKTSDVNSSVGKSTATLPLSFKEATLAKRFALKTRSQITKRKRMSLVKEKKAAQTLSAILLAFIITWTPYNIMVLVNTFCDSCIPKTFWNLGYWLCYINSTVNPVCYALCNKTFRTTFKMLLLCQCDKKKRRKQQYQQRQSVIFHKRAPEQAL

[4] = biological target: T3, Muscarinic acetylcholine receptor M4 (Homo sapiens, UniProt P08173); assay: Affinity for Muscarinic acetylcholine receptor M4 expressed in CHO cells by [3H]NMS displacement.
T3 sequence (P08173 whole entry): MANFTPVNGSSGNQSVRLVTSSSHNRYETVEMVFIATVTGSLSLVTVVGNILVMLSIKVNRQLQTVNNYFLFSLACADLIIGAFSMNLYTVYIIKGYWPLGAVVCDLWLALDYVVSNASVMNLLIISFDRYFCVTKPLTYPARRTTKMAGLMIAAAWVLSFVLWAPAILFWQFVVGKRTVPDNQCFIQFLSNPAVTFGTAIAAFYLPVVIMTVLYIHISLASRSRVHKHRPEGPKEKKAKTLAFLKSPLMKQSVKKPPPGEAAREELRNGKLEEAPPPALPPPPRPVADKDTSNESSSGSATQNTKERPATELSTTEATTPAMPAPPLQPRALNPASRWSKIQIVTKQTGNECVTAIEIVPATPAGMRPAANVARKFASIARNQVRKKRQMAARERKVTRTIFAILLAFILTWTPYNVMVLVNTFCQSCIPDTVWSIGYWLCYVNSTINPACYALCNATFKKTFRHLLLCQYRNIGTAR

[5] = biological target: T4, Muscarinic acetylcholine receptor M5 (Homo sapiens, UniProt P08912); assay: Affinity for Muscarinic acetylcholine receptor M5 expressed in CHO cells by [3H]NMS displacement.
T4 sequence (P08912 whole entry): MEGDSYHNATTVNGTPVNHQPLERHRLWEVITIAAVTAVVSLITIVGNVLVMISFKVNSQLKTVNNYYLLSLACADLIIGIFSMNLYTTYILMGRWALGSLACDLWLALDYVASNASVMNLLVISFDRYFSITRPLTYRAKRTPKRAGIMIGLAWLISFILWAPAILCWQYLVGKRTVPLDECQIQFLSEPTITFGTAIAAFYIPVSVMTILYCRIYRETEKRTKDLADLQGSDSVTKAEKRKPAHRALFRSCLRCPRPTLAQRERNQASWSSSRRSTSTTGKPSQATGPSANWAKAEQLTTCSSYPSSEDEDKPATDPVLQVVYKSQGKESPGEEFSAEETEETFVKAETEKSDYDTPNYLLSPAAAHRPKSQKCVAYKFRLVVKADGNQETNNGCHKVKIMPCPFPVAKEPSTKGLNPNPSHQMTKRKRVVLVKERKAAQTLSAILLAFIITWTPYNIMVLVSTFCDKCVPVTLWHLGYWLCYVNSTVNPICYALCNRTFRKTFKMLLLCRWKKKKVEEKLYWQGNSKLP

Compound	pKi [1]	pKi [2]	pKi [3]	pKi [4]	pKi [5]
CN(C)CCNC(=O)C1=C/C(=C\c2cccnc2)c2ccccc21	4.53	4.55	4.39	4.67	4.18
CN(C)CCNC(=O)C1=C/C(=C\c2ccccn2)c2ccccc21	4.38	4.57	4.21	4.47	4.26
CN(C)CCOC(=O)C1=C/C(=C\c2ccncc2)c2ccccc21	4.98	4.92	4.82	4.83	4.57
CN(C)CCN(C)C(=O)C1=C/C(=C\c2ccccn2)c2ccccc21	5.04	4.66	4.20	4.33	4.28
CN1CCN(C(=O)C2=C/C(=C\c3ccncc3)c3ccccc32)CC1	4.41	4.53	4.01	4.05	4.26
CN(C)CCNC(=O)C1=C/C(=C\c2ccncc2)c2ccccc21	4.80	4.62	4.34	4.61	4.27
CC(C1=C(CCN(C)C)Cc2ccccc21)c1ccccn1 (stereo not drawn)	7.35	6.58	6.72	6.39	6.10
CN(C)CCC1=C/C(=C\c2cccnc2)c2ccccc21	4.82	4.73	4.56	4.65	4.57
CN(C)CCN(C)C(=O)C1=C/C(=C\c2cccnc2)c2ccccc21	4.85	4.31	4.14	4.26	4.27
CN(C)CCOC(=O)C1=C/C(=C\c2ccccn2)c2ccccc21	4.92	5.15	4.85	4.91	4.75
CN(C)CCOC(=O)C1=C/C(=C\c2cccnc2)c2ccccc21	5.13	4.94	5.00	4.90	4.52
CC1OC(=O)[C@H]2C[C@H]3CCCC[C@@H]3[C@@H](/C=C/C3CCCC(C)N3C)[C@@H]12 (single isomer, unassigned) [HIMBACINE]	8.00	6.97			6.31
CN(C)CCC1=C/C(=C\c2ccccn2)c2ccccc21	4.90	5.02	4.67	4.92	4.72
